From patent US7498360B2, “Method and compositions for local treatment of Meniere's disease, tinnitus and/or hearing loss” (Synphora AB, priority 2001, dated 2009)

Tests used:
[1] = system: vasculature in the cochlea; conditions: in vivo; cited from earlier work
[2] = system: patients with Meniere's disease; conditions: two patients with Meniere's disease, with furosemide; cited from earlier work
[3] = system: endolymphatic duct structures / inner ear of pigmented guinea pigs; assay: Intratympanic administration of latanoprost to guinea pigs: tolerability, brain stem audiometry and morphology of the endolymphatic duct structures; assay type: in vivo, guinea pig
Procedure: Four pigmented guinea pigs of either sex weighing around 200-300 grams were anaesthetised with pentobarbital for intratympanic (into the middle ear) administration of latanoprost, and for brain stem audiometric measurements. The audiometric measurements were carried out at 8, 16 and 32 kHz frequency before and after the administration of latanoprost (58 μg/ml; a total of 250 μl/injection corresponding to about 14 μg latanoprost) and the vehicle. Latanoprost was administered once daily for three days into one ear, while the other ear received a similar injection of the vehicle only, and on the fourth day the animals were euthanatized with an overdose of the anaesthetic. The middle ears were dissected and the mucus membranes were inspected. Thereafter the inner ear was removed and the labyrinth was perfusion fixated through the oval and round windows with a 3% buffered glutaraldehyde solution. The tissues were then immersion fixated for about 24 hours in the same solution, and decalcified in 0.1 M sodium EDTA solution for about 2 weeks. The tissues were thereafter prepared according to routine techniques for light microscopy, and ultrathin sections of Epon-embedded tissue pieces were cut for transmission electron microscopy.
Most importantly, in several animals clear-cut changes in the morphology around the endolymphatic duct were detected. […] These findings were corroborated by 3 persons. […] Similar effects have previously been seen in the ciliary muscle of the eye after topical treatment with latanoprost and other prostaglandins (Lütjen-Drecoll and Tamm, 1989; Lindsey et al., 1998; Stjernschantz et al., 1998).

[4] = system: patients suffering from unilateral Meniere's disease; assay: Randomised, double-masked, placebo-controlled crossover clinical trial with latanoprost in Meniere's disease; assay type: in vivo, human; conditions: for vertigo, visual analogue scale: decreasing values reflecting improvement
Procedure: During the priority year, a randomised, double-masked, placebo-controlled clinical trial was performed by the inventors of the present patent application. Nine patients (5 males and 4 females; age 39-65 years) suffering from unilateral Meniere's disease were treated daily for three consecutive days with latanoprost (around 50 micrograms/ml) or placebo adopting a crossover design. Accordingly, each patient was treated with both latanoprost and placebo in random order. Each treatment period lasted for 3 days, and after that the patients were examined at days 5 and 15 from the start of the treatment. Approximately 1 month elapsed between the two treatment periods (washout period). The treatment was given by intratympanic injection (around 0.2-0.8 ml) into the middle ear essentially as described above. Several parameters/symptoms were registered and followed, in particular the following: Pure tone average (decibels), discrimination value (%), tinnitus loudness (decibels), and by using visual analogue scale technique; subjective hearing ability, tinnitus and vertigo. The patients recorded the three last mentioned parameters daily, and the means over the periods 2-5 days and 2-15 days after initiation of treatment with latanoprost and placebo were computed.
Such improvement was never observed during placebo treatment. At day 15 the mean discrimination value after latanoprost treatment was 68.2±7.2%, while it was 52.9±1.5% after placebo treatment, the difference of 29% being statistically significant at the p<0.05 level. Likewise, a statistically significant (p<0.01) improvement in pure tone average value at day 15 was found after latanoprost treatment in comparison to placebo, the values being 58.9±3.6 and 64.3±3.5 decibels, respectively (a lower value representing improvement). Finally, at least seven out of the nine patients experienced less vertigo both during the immediate period (days 2-5) after initiation of the latanoprost treatment as well as during a longer period (days 2-15) after the initiation of the latanoprost treatment. The values on the visual analogue scale (in mm; decreasing values reflecting improvement, i.e. less sensation of vertigo) were as follows: Days 2-5 latanoprost treatment: 22.4±9.1, and placebo treatment: 33.5±10.8 (p<0.05); Days 2-15 latanoprost treatment: 24.2±10.0 and placebo treatment: 34.2±11.4 (p<0.05).

[5] = system: patients suffering from unilateral Meniere's disease; assay: Local (intratympanic) administration of latanoprost to two patients suffering from Meniere's disease; assay type: in vivo, human; set-up: key to Tinnitus (grade): 0 = none; 1 = mild; 2 = moderate; 3 = marked; conditions: for Tinnitus (grade): After (7 or 13 days after start of treatment), before: 3; for Acoustic emissions (%) 1 kHz / Acoustic emissions (%) 2 kHz / Acoustic emissions (%) 3 kHz / Acoustic emissions (%) 4 kHz / Acoustic emissions (%) 5 kHz / Acoustic emissions (%) Total reproducibility: After; for Acoustic emissions (%) 1 kHz / Acoustic emissions (%) 2 kHz / Acoustic emissions (%) 3 kHz / Acoustic emissions (%) 4 kHz / Acoustic emissions (%) 5 kHz: before: 0; for Subjective hearing ability: after treatment
Procedure: […] About 0.3-0.4 ml of a sterile Xalatan® (0.005% latanoprost) solution was administered by intratympanic installation in close apposition to the round window after appropriate local anaesthesia. The patients were thereafter asked to lie on the side with the treated ear up for about 30 min to enhance the penetration of latanoprost into the internal ear. The patients had at least 40 decibel decrease in the audiogram at 0.5, 1 and 2 kHz frequency, at baseline before treatment with latanoprost. In addition they suffered from episodes of vertigo and nausea in combination with tinnitus. Audiograms, and cochlear emissions were recorded before the treatment and at the 7th or 13th day after the start of the treatment, and information about the subjective symptoms were collected.

[6] = visual analogue scale, latanoprost vs placebo
[7] = two patients, after administration

## CCCCC[C@H](O)/C=C/[C@@H]1[C@@H](C/C=C\CCCC(=O)O)[C@@H](O)C[C@H]1O [PGF2α]
[1]
  effect on the vasculature in the cochlea: no effect

## COc1ccc2c(c1)c(CC(=O)O)c(C)n2C(=O)c1ccc(Cl)cc1 [indomethacin]
[2]
  effect on the discrimination score: block the effect of furosemide

## CC(C)OC(=O)CCC/C=C\C[C@@H]1[C@@H](CC[C@@H](O)CCc2ccccc2)[C@H](O)C[C@@H]1O [latanoprost, 13,14-dihydro-17-phenyl-18,19,20-trinor-PGF2α-isopropyl ester]
[3]; guinea pig, 8, 16 and 32 kHz, before and after intratympanic administration
  brain stem audiograms: no changes that could be attributed to the treatment
[3]; guinea pig, in several animals, zone around fibroblasts in loose connective tissue surrounding the duct
  morphology around the endolymphatic duct: reduced density of the extracellular matrix
[3]; guinea pig, intratympanic, about 14 μg once daily for three days
  morphological changes in the cochlea including the organ of Corti with the hair cells: no morphological changes
[3]; guinea pig, intratympanic, about 14 μg once daily for three days, examined day 4
  inflammatory changes in the mucous membranes of the middle ear or in the tympanic membrane: No inflammatory changes
[3]; guinea pig, intratympanic, once daily for three days
  tolerability: well tolerated
[4]; Days 2-5, placebo 33.5±10.8, p<0.05
  vertigo, visual analogue scale: 22.4±9.1 mm
[4]; Days 2-15, placebo 34.2±11.4, p<0.05
  vertigo, visual analogue scale: 24.2±10.0 mm
[4]; both days 2-5 and days 2-15 after initiation of treatment
  patients (out of nine) who experienced less vertigo: at least seven
[4]; clinical trial
  cochlear emissions: variable results
[4]; day 15, p<0.05
  difference in mean discrimination value versus placebo: 29%
[4]; day 15, placebo 52.9±1.5%, p<0.05
  mean discrimination value: 68.2±7.2%
[4]; day 15, placebo 64.3±3.5, p<0.01, lower value representing improvement
  pure tone average value: 58.9±3.6 decibels
[4]; in three of the nine patients, after latanoprost treatment
  improvement in discrimination value: 25-50%
[4]; latanoprost vs placebo
  tinnitus loudness: No statistically significant change
[4]; [6]
  Subjective hearing ability: No statistically significant change
  subjective experience of tinnitus: No statistically significant change
[5]; patient one
  Tinnitus (grade): 1
  Acoustic emissions (%) 1 kHz: 45%
  Acoustic emissions (%) 2 kHz: 0
  Acoustic emissions (%) 3 kHz: 42%
  Acoustic emissions (%) 4 kHz: 0
  Acoustic emissions (%) 5 kHz: 0
  Subjective hearing ability: Improved
[5]; patient one, before: 5
  Acoustic emissions (%) Total reproducibility: 37%
[5]; patient two
  Tinnitus (grade): 2
  Acoustic emissions (%) 1 kHz: 0%
  Acoustic emissions (%) 2 kHz: 57%
  Acoustic emissions (%) 3 kHz: 0%
  Acoustic emissions (%) 4 kHz: 0%
  Acoustic emissions (%) 5 kHz: 0%
  Subjective hearing ability: Improved
[5]; patient two, before: 10
  Acoustic emissions (%) Total reproducibility: 37%
[5]; [7]
  audiograms: no significant change
  cochlear emissions: significantly improved
  patients' condition with respect to the tinnitus and hearing ability: marked improvement
